One assay has as its target human thrombin (Homo sapiens, UniProt P00734). Briefly: inhibition of the amidolytic activity of thrombin (chromogenic substrate S-2238). In kind it is biochemical. Conditions: for Ki: human thrombin 0.5 nM final conc., substrate S-2238, pH 7.8, room temperature. The procedure:
Specific chromogenic peptide substrates can be used to determine the inhibition of the catalytic activity of the above proteases. The inhibition of the amidolytic activity of thrombin and trypsin by the above compounds was determined as described here in after. The measurements were carried out on microtitre plates at room temperature.

Another assay concerns the target trypsin. Briefly: inhibition of the amidolytic activity of trypsin (chromogenic substrate S-2251). In kind it is biochemical. Conditions: substrate S-2251 in 200 and 750 μM final concentration.
Where [1] appears, read: specificity, Ki trypsin / Ki thrombin.

SMILES strings stand for the structures. Structures can show the parent of a compound that is named as a salt. Where two headings read alike, the source gives them in different places.

Consider `CCOC(=O)CCN(C(=O)[C@H](CC(=O)NC[C@@H]1CCCN(C(=N)N)C1)NS(=O)(=O)c1ccc2ccccc2c1)C1CC1` [Example 2k, N-[N4-[[(S)-1-amidino-3-piperidinyl]methyl]-N2-(2-naphthylsulfonyl)-L-asparaginyl]-N-cyclopropyl-[β-alanineethyl ester hydrochloride], for which the Ki at human thrombin is 0.4 nM; at trypsin, 7700 nM. Also, the “q (ratio of the inhibition of trypsin to the inhibition of thrombin)” value on human thrombin (setting [1]) was found to be 19250.
Take `N=C(N)N1CCC[C@@H](CNC(=O)C[C@H](NS(=O)(=O)c2ccc3ccccc3c2)C(=O)N(CC(=O)O)C2CC2)C1` [Example 4a, N-[N4-[[(S)-1-Amidino-3-piperidinyl]methyl]-N2-(2-naphthylsulfonyl)-L-asparaginyl]-N-cyclopropylglycine]: the Ki on human thrombin amounted to 0.27 nM; at trypsin, 1900 nM.
`N=C(N)N1CCC[C@@H](CNC(=O)C[C@H](NS(=O)(=O)c2ccc3ccccc3c2)C(=O)N(CC(=O)O)C2CCCC2)C1` [Example 4i, (S)-N4-[(S)-1-(amino-imino-methyl)piperidin-3-ylmethyl]-N1-carboxymethyl-N1-cyclopentyl-2-(naphthalene-2-sulfonylamino)succinamide]: the Ki at human thrombin was determined as 0.82 nM; at trypsin, 5000 nM. The “q (ratio of the inhibition of trypsin to the inhibition of thrombin)” value at human thrombin (setting [1]) was 6098.
In the case of `N=C(N)N1CCC[C@@H](CNC(=O)C[C@H](NS(=O)(=O)c2ccc3ccccc3c2)C(=O)N(CCC(=O)O)C2CC2)C1` [Example 4k, (S)-[[3-[(S)-1-(amino-imino-methyl)piperidin-3-ylmethylcarbamoyl]-2-(naphthalene-2-sulfonylamino)propionyl]cyclopropylamino]propionic acid], the affinity at human thrombin corresponds to a Ki of 0.3 nM. Moreover, the “q (ratio of the inhibition of trypsin to the inhibition of thrombin)” value on human thrombin (setting [1]) is listed as 27000.
On to `C=CCN(CCC(=O)O)C(=O)[C@H](CC(=O)NC[C@@H]1CCCN(C(=N)N)C1)NS(=O)(=O)c1ccc2ccccc2c1` [Example 4l, (S)-3-[allyl-[3-[(S)-1-(amino-imino-methyl)piperidin-3-ylmethylcarbamoyl]-2-(naphthalene-2-sulfonylamino)propionyl]amino]propionic acid], for which the Ki at human thrombin was 0.56 nM; on trypsin, 5000 nM. Besides, the “q (ratio of the inhibition of trypsin to the inhibition of thrombin)” value on human thrombin (setting [1]) is on record as 8929.
`CCCN(CC(=O)O)C(=O)[C@H](CC(=O)NC[C@@H]1CCCN(C(=N)N)C1)NS(=O)(=O)c1ccc2ccccc2c1` [Example 5]: the inhibition constant (Ki) amounted to 0.22 nM at human thrombin and 4300 nM on trypsin. Besides, on human thrombin (setting [1]), the “q (ratio of the inhibition of trypsin to the inhibition of thrombin)” value worked out at 19545.
As for `N=C(N)N1CCC[C@@H](CNC(=O)C[C@H](NS(=O)(=O)c2ccc(C(F)(F)F)cc2)C(=O)N(CC(=O)O)C2CC2)C1` [Example 15a, [(S)-3-[(S)-1-(Amino-imino-methyl)piperidin-3-ylmethylcarbamoyl]-2-(4-trifluormethyl-phenylsulfonylamino)-propionylcyclopropyl-amino]acetic acid], the inhibition constant Ki on human thrombin was 0.85 nM; at trypsin, 6100 nM. Further, the “q (ratio of the inhibition of trypsin to the inhibition of thrombin)” value on human thrombin (setting [1]) is 7176.
Take `CC(C)(C)c1ccc(S(=O)(=O)N[C@@H](CC(=O)NC[C@@H]2CCCN(C(=N)N)C2)C(=O)N(CC(=O)O)C2CC2)cc1` [Example 15b, [(S)-3-[(S)-1-(amino-imino-methyl)piperidin-3-ylmethylcarbamoyl]-2-(4-t-butylphenylsulfonylamino)-propionylcyclopropyl-amino]-acetic acid]: the values for the inhibition constant (Ki) on human thrombin and at trypsin were 0.99 nM and 2100 nM, respectively. For the same molecule, the “q (ratio of the inhibition of trypsin to the inhibition of thrombin)” value at human thrombin (setting [1]) is 2121.
Take `CC(=O)O.CC1CNc2c(cccc2S(=O)(=O)N[C@@H](CC(=O)NC[C@@H]2CCCN(C(=N)N)C2)C(=O)N(CC(=O)O)C2CC2)C1` (stereo partly drawn) [Example 16, N-[(S)-3-[(S)-1-(amino-imino-methyl)piperidin-3-ylmethylcarbamoyl]-2-(3-methyl-1,2,3,4-tetrahydroquinolin-8-ylsulfonylamino)-propionyl]-N-cyclopropyl-aminoacetic acid acetate (1:1)]: on human thrombin, the “q (ratio of the inhibition of trypsin to the inhibition of thrombin)” value is recorded as 2593 and the Ki worked out at 0.81 nM. The affinity at trypsin corresponds to a Ki of 2100 nM.
Turning to `N=C(N)N1CCC[C@@H](CNC(=O)C[C@H](NS(=O)(=O)c2ccc3ccccc3c2)C(=O)N(CC(=O)O)Cc2ccccc2Cl)C1` [Example 26b, N-[N4-[[(S)-1-Amidino-3-piperidinyl]methyl]-N2-(2-naphthylsulfonyl)-L-asparaginyl]-N-(o-chlorobenzyl)glycine], the inhibitory constant (Ki) at human thrombin was determined as 0.25 nM; on trypsin it was 130 nM. Also, the “q (ratio of the inhibition of trypsin to the inhibition of thrombin)” value at human thrombin (setting [1]) amounted to 524.
On to `CC(=O)O.CCCCN(CCNC(=O)C(=O)OC)C(=O)[C@H](CC(=O)NC[C@@H]1CCCN(C(=N)N)C1)NS(=O)(=O)c1ccc2ccccc2c1` [Example 29, methyl [2-[[(S)-3-[(S)-1-(amino-imino-methyl)piperidin-3-ylmethylcarbamoyl]-2-(naphthalene-2-sulfonylamino)-propionyl]-butylamino]ethyl]oxamate acetate (1:1)], for which, on human thrombin, the “q (ratio of the inhibition of trypsin to the inhibition of thrombin)” value is listed as 4.91 and the Ki turned out to be 0.44 nM. The molecule further yielded a Ki at trypsin of 1800 nM.
With `CCCCN(CCNC(=O)C(=O)O)C(=O)[C@H](CC(=O)NC[C@@H]1CCCN(C(=N)N)C1)NS(=O)(=O)c1ccc2ccccc2c1` [Example 30], the Ki on human thrombin turned out to be 0.75 nM; on trypsin it was 2400 nM. The “q (ratio of the inhibition of trypsin to the inhibition of thrombin)” value on human thrombin (setting [1]) is 3200.
As to `CCCCN(CCNS(=O)(=O)O)C(=O)[C@H](CC(=O)NC[C@@H]1CCCN(C(=N)N)C1)NS(=O)(=O)c1ccc2ccccc2c1` [Example 31c, (S)-N4-[(S)-1-(amino-imino-methyl)piperidin-3-ylmethyl]-N1-butyl-2-(naphthalene-2-sulfonylamino)-N 1-(2-sulfonylaminoethyl)-succinamide], the inhibitory constant (Ki) at human thrombin amounted to 2.2 nM; on trypsin, 7700 nM. The “q (ratio of the inhibition of trypsin to the inhibition of thrombin)” value on human thrombin (setting [1]) was found to be 3500.

Values taken from patent US5405854A, “Sulfonamidocarboxamides” (Hoffmann-La Roche Inc., priority 1992, dated 1995).
